Measurements from patent publication US20050070872A1, “Blood bag system and method of inactivating pathogenic microorganisms” (priority 2001, published 2005).
Where two headings read alike, the source gives them in different places.

Assays:
Simian Virus 40 (SV-40) [1] = assay: Virus inactivation of SV-40 in RC-MAP using the blood bag system (Example 2), TCID50 on CV-1 cells; format: cell-based; conditions: for inactivation effect (positive control TCID50 minus inactivated solution TCID50): 7 hours; for TCID50 of the inactivated solution: room temperature (in the dark) 7 hours, positive control 6.0 log10
Procedure: Blood was collected from healthy humans and RC-MAP (concentrated erythrocyte preparation) was prepared, which was introduced into the blood bag 1 (400-mL CPDA blood bag) in the blood bag system shown in FIG. 2. Thereafter, 10^8 TCID50/mL (50% infection endpoint) of SV-40 per 2 mL of RC-MAP was added to the blood bag 1 from the air-bleeding tube 10 by using a syringe, and the blood bag 1 was gently stirred.
Thereafter, the blood bag was stirred gently, and the resultant was allowed to react at room temperature (in the dark) for 7 hours to effect inactivation. After completion of the inactivation, 4 mL of the inactivated solution was sampled from the blood bag 1 and centrifuged at 3,000 rpm for 1 minute. The supernatant was used for the evaluation of virus inactivation.
(§1) Evaluation of virus inactivation was performed by TCID50 using a 96-well microplate. In a 25-cm^2 cell culture flask, a CV-1 cell (simian kidney derived cell), which is a proliferating cell of SV-40, was cultivated in a 10% fetal bovine serum-added MEM medium for 3 days for proliferation. Thereafter, the cells were floated with 0.5 mL of 0.05% trypsin-EDTA, to prepare a cell suspension in 25 mL of the 10% fetal bovine serum-added MEM medium.
(§2) After 90 μL of the cell suspension was added to each well of the 96-well microplate, 10 μL of the reaction mixture (the above-mentioned supernatant) was added to each well of the first column of the 96-well microplate and pipetting was performed to stir the resultant. Further, 10 μL of the solution in each well of the first column was added to each well of the second column of the microplate to perform 10-fold gradual dilution operation. This operation was repeated up to the wells of the twelfth column of the microplate. The microplate was incubated in a 5% carbon dioxide gas incubator at 37° C. for 10 days. Then, a cytopathic effect (CPE) by SV-40 was observed using an optical microscope, and TCID50 were calculated as logarithmic values (log10).
(§3) At the same time, TCID50 of a positive control, in which a phosphate buffer was added instead of the platinum compound, was calculated as a logarithmic value (log10). A value obtained by subtracting TCID50 of the inactivated solution from TCID50 of the positive control was defined as a killing effect (inactivation effect).
In FIG. 4, the inactivation effect means a value obtained by subtracting TCID50 of the inactivated solution (logarithmic value (log10)) from TCID50 of the above-mentioned positive control (logarithmic value (log10)).

Simian Virus 40 (SV-40) [2] = assay: Virus inactivation of SV-40 in RC-MAP (Example 1), TCID50 on CV-1 cells; format: cell-based; conditions: for inactivation effect (positive control TCID50 minus inactivated solution TCID50): 7 hours; for TCID50 of the inactivated solution: room temperature (in the dark) 7 hours, positive control 6.5 log10
Procedure: In a 400-mL CPDA blood bag in the blood bag system shown in FIG. 1, RC-MAP (concentrated erythrocyte preparation) was prepared from blood collected from healthy humans. Thereafter, 2 mL of RC-MAP was sampled in a 15-mL centrifuging tube aseptically, and 2 mL of 10^8 TCID50/mL (50% infection end point) SV-40 was added thereto, followed by gentle stirring. […] After completion of the inactivation, the inactivated solution was centrifuged at 3,000 rpm for 1 minute and the supernatant was used for the evaluation of virus inactivation.
as §1, §2
as §3, with “effect.” for “effect (inactivation effect).”
In FIG. 3, the inactivation effect means a value obtained by subtracting TCID50 of the inactivated solution (logarithmic value (log10)) from TCID50 of the above-mentioned positive control (logarithmic value (log10)).

[3] = test system: Mouse Hepatitis Virus (MHV); assay: Virus inactivation of MHV in RC-MAP (Example 4), TCID50 on DBT cells; format: cell-based; conditions: 1.67 mM solution, 7 hours
Procedure: Thereafter, 2 mL of RC-MAP was sampled in a 15-mL centrifuging tube aseptically, and 2 mL of 10^7 TCID50/mL MHV was added thereto, followed by gentle stirring. […] After completion of the inactivation, the inactivated solution was centrifuged at 3,000 rpm for 1 minute and the supernatant was used for the evaluation of virus inactivation.
Evaluation of virus inactivation was performed by TCID50 using a 96-well microplate. In a 25-cm^2 cell culture flask, a DBT cell, which is a proliferating cell of MHV, was cultivated in a 5% fetal bovine serum-added MEM medium for 3 days for proliferation. Thereafter, the cells were floated with 0.5 mL of 0.05% trypsin-EDTA, to prepare a cell suspension in 25 mL of the 10% fetal bovine serum-added MEM medium.
After 90 μL of this cell suspension was added to each well of the 96-well microplate, 10 μL of the solution was added to each well of the first column of the 96-well microplate and pipetting was performed to stir the resultant. […] Then, a cytopathic effect (CPE) by MHV was observed using an optical microscope, and TCID50 was calculated as a logarithmic value (log10). At the same time, TCID50 of a positive control, in which a phosphate buffer was added instead of the platinum compound, was calculated as a logarithmic value (log10). […]

Yersinia enterocolitica [4] = assay: Bacteria inactivation of Yersinia enterocolitica in RC-MAP (Example 5), colony count; format: cell-based; conditions: for Number of survival bacteria: RC-MAP, 7 hours
Procedure: After gentle stirring, the resultant was allowed to react at room temperature (in the dark) for 7 hours to effect inactivation.
This was cultivated at 31° C. for 2 days.
Note that solution to which no cisplatin was added was defined as a positive control. A bacteria inactivation effect was defined by a value obtained by subtracting the number of survival bacteria (logarithmic value (log10)) in cisplatin-added inactivated solution from the number of survival bacteria (logarithmic value (log10)) in the positive control.

[5] = test system: Human Cytomegalovirus (HCMV); assay: Virus inactivation of HCMV in RC-MAP (Example 3), TCID50 on HEL cells; format: cell-based; conditions: 1.67 mM solution, 7 hours
Procedure: In the blood bag 1 (a 400-mL CPDA blood bag) in the blood bag system shown in FIG. 1, RC-MAP (concentrated erythrocyte preparation) was prepared from blood collected from healthy humans. Thereafter, 2 mL of RC-MAP was sampled in a 15-mL centrifuging tube aseptically, and 2 mL of 10^7 TCID50/mL HCMV was added thereto, followed by gentle stirring. […] After completion of the inactivation, the inactivated solution was centrifuged at 3,000 rpm for 1 minute and the supernatant was used for the evaluation of virus inactivation.
Evaluation of virus inactivation was performed by TCID50 using a 96-well microplate. In a 25-cm^2 cell culture flask, a HEL cell (primary human embryonic lung fibroblasts cell), which is a proliferating cell of HCMV, was cultivated in a 10% fetal bovine serum-added MEM medium for 3 days for proliferation. […]
After 90 μL of this cell suspension was added to each well of the 96-well microplate, 10 μL of the solution (the above-mentioned supernatant) was added to each well of the first column of the 96-well microplate and pipetting was performed to stir the resultant. […] Then, a cytopathic effect (CPE) by HCMV was observed using an optical microscope, and TCID50 was calculated as a logarithmic value (log10) . At the same time, TCID50 of a positive control, in which a phosphate buffer was added instead of the platinum compound, was calculated as a logarithmic value (log10).

[6] = test system: initial culture cells of Ehrlich cancer; conditions: cited from earlier work
Yersinia enterocolitica [7] = test system: Yersinia enterocolitica
Procedure: In the blood bag 1 (400-mL CPDA blood bag) of the blood bag system shown in FIG. 1, RC-MAP (concentrated erythrocyte preparation) was prepared from blood collected from healthy humans. […] To the resultant was added 2 mL of a 168 mM L-methionine solution having dissolved L-methionine in physiological saline, for a reaction at room temperature for 30 minutes.
Similarly, as neutralizing agents, L-methionine solutions having concentrations of 84 mM, 42 mM, 21 mM, 10.5 mM, 5.25 mM, 2.63 mM, and 1.31 mM, respectively, obtained by dissolving L-methionine in physiological saline or sodium thiosulfate solutions having concentrations of 168 mM, 84 mM, 42 mM, 21 mM, 10.5 mM, 5.25 mM, 2.63 mM, and 1.31 mM, respectively, obtained by dissolving sodium thiosulfate in physiological saline were used to effect a reaction. […] Thereafter, 10 μL of 10^8 CFU/mL Yersinia enterocolitica was added to each solution, and the number of bacterial cells after stirring was measured.
Measurement of bacterial cells was conducted on solutions obtained by repeating 3 times the 10-fold gradual dilution operation consisting of adding 1 mL of the inactivated solution to 9 mL of sterilized physiological saline, stirring the mixture by using a touch mixer, and further adding 1 mL of the resultant to 9 mL of physiological saline for dilution. […], 1 mL or 100 μL of the diluted solution in each stage was mixed in a petri dish having a diameter of 9 cm and containing 15 mL soybean casein digest agar medium. This was cultivated at 31° C. for 2 days. The number of colonies emerged was defined as number of survival bacteria, and a logarithmic value (log10) thereof was defined as a neutralization effect.

SV-40 = conditions: 3.5 mM cisplatin solution then 175 mM sodium thiosulfate solution
Procedure: as §1
as §2, with “[…] A value obtained by subtracting TCID50 of the inactivated solution from TCID50 of the positive control was defined as” for “Then,”, “killing effect.” for “cytopathic effect (CPE) by SV-40 was observed using an optical microscope, and TCID50 were calculated as logarithmic values (log10).”

In the case of `N.N.O=C([O-])C1(C(=O)[O-])CCC1.[Pt+2]` [carboplatin], the “inactivation effect (positive control TCID50 minus inactivated solution TCID50)” value (Simian Virus 40 (SV-40) [1]; 3.5 mM solution) is reported as 1.5 log10, the “TCID50 of the inactivated solution” value (Simian Virus 40 (SV-40) [1]; 3.5 mM solution) is reported as 4.5 log10 and the “inactivation effect (positive control TCID50 minus inactivated solution TCID50)” value (Simian Virus 40 (SV-40) [2]; 3.5 mM solution) is reported as 1.00 log10. The “TCID50 of the inactivated solution” value (Simian Virus 40 (SV-40) [2]; 3.5 mM solution) was 5.50 log10.
In the case of `N.N.[Cl][Pt][Cl]` [cisplatin], the “MHV killed (MHV inactivation effect)” value [3] is reported as 4.00 log10, the “inactivation effect (positive control TCID50 minus inactivated solution TCID50)” value (Simian Virus 40 (SV-40) [1]; 1.67 mM solution) is reported as 5.0 log10 and the “TCID50 of the inactivated solution” value (Simian Virus 40 (SV-40) [1]; 1.67 mM solution) is reported as 1.0 log10. For the same compound, the Bacteria killing effect (Yersinia enterocolitica [4]; cisplatin 0.0209 mM) was 0.18 log10, the “Number of survival bacteria” value (Yersinia enterocolitica [4]; cisplatin 0.0209 mM) was 4.82 log10 and the Bacteria killing effect (Yersinia enterocolitica [4]; cisplatin 0.042 mM) was 0.48 log10. For the same compound, the “Number of survival bacteria” value (Yersinia enterocolitica [4]; cisplatin 0.042 mM) was 4.52 log10, the Bacteria killing effect (Yersinia enterocolitica [4]; cisplatin 0.083 mM) was 1.21 log10 and the “Number of survival bacteria” value (Yersinia enterocolitica [4]; cisplatin 0.083 mM) was 3.79 log10. The Bacteria killing effect (Yersinia enterocolitica [4]; cisplatin 0.17 mM) was 2.20 log10, the “Number of survival bacteria” value (Yersinia enterocolitica [4]; cisplatin 0.17 mM) was 2.80 log10 and the Bacteria killing effect (Yersinia enterocolitica [4]; cisplatin 0.33 mM) was 2.73 log10. The “Number of survival bacteria” value (Yersinia enterocolitica [4]; cisplatin 0.33 mM) was 2.27 log10, the Bacteria killing effect (Yersinia enterocolitica [4]; cisplatin 0.67 mM) was 3.52 log10 and the “Number of survival bacteria” value (Yersinia enterocolitica [4]; cisplatin 0.67 mM) was 1.48 log10. For the same compound, the Bacteria killing effect (Yersinia enterocolitica [4]; cisplatin 1.33 mM) was 4.94 log10, the “Number of survival bacteria” value (Yersinia enterocolitica [4]; cisplatin 1.33 mM, positive control 5.00 log10) was 0.06 log10 and the “HCMV killed (anti-HCMV inactivation effect)” value [5] was 4.00 log10. The “effective concentration against cancer cells (antiviral activity (IC50))” value [6] was 0.25 µg/mL, the “inactivation effect (positive control TCID50 minus inactivated solution TCID50)” value (Simian Virus 40 (SV-40) [2]; 1.67 mM solution) was 5.25 log10 and the “TCID50 of the inactivated solution” value (Simian Virus 40 (SV-40) [2]; 1.67 mM solution) was 1.25 log10.
For `CSCC[C@H](N)C(=O)O` [methionine, L-methionine], the “Number of survival bacteria (neutralization effect)” value (from here on “Number … (neutralization effect)”) (Yersinia enterocolitica [7]; methionine 0.44 mM after 4.00 mM cisplatin solution) was 0.34 log10, the “Number … (neutralization effect)” value (Yersinia enterocolitica [7]; methionine 0.88 mM after 4.00 mM cisplatin solution) was 0.73 log10 and the “Number … (neutralization effect)” value (Yersinia enterocolitica [7]; methionine 1.75 mM after 4.00 mM cisplatin solution) was 0.89 log10. For the same compound, the “Number … (neutralization effect)” value (Yersinia enterocolitica [7]; methionine 3.5 mM after 4.00 mM cisplatin solution) was 1.22 log10, the “Number … (neutralization effect)” value (Yersinia enterocolitica [7]; methionine 7 mM after 4.00 mM cisplatin solution) was 1.43 log10 and the “Number … (neutralization effect)” value (Yersinia enterocolitica [7]; methionine 14 mM after 4.00 mM cisplatin solution) was 1.87 log10. The “Number … (neutralization effect)” value (Yersinia enterocolitica [7]; methionine 28 mM after 4.00 mM cisplatin solution) was 3.36 log10 and the “Number … (neutralization effect)” value (Yersinia enterocolitica [7]; methionine 56 mM after 4.00 mM cisplatin solution, 30 minutes, same as without cisplatin) was 5.1 log10.
With `[NH2][Pt]1([NH2])[O]CC(=O)[O]1` [nedaplatin] the “inactivation effect (positive control TCID50 minus inactivated solution TCID50)” value (Simian Virus 40 (SV-40) [1]; 3.5 mM solution) was 3.5 log10, the “TCID50 of the inactivated solution” value (Simian Virus 40 (SV-40) [1]; 3.5 mM solution) was 2.5 log10 and the “inactivation effect (positive control TCID50 minus inactivated solution TCID50)” value (Simian Virus 40 (SV-40) [2]; 3.5 mM solution) was 4.25 log10. For the same compound, the “TCID50 of the inactivated solution” value (Simian Virus 40 (SV-40) [2]; 3.5 mM solution) was 2.25 log10.
For `O=S([O-])([O-])=S.[Na+].[Na+]` [sodium thiosulfate], the “Number … (neutralization effect)” value (Yersinia enterocolitica [7]; sodium thiosulfate 0.44 mM after 4.00 mM cisplatin solution) was 0.44 log10, the “Number … (neutralization effect)” value (Yersinia enterocolitica [7]; sodium thiosulfate 0.88 mM after 4.00 mM cisplatin solution) was 0.86 log10 and the “Number … (neutralization effect)” value (Yersinia enterocolitica [7]; sodium thiosulfate 1.75 mM after 4.00 mM cisplatin solution) was 1.28 log10. The “Number … (neutralization effect)” value (Yersinia enterocolitica [7]; sodium thiosulfate 3.5 mM after 4.00 mM cisplatin solution) was 1.51 log10, the “Number … (neutralization effect)” value (Yersinia enterocolitica [7]; sodium thiosulfate 7 mM after 4.00 mM cisplatin solution) was 1.98 log10 and the “Number … (neutralization effect)” value (Yersinia enterocolitica [7]; sodium thiosulfate 14 mM after 4.00 mM cisplatin solution) was 2.35 log10. For the same compound, the “Number … (neutralization effect)” value (Yersinia enterocolitica [7]; sodium thiosulfate 28 mM after 4.00 mM cisplatin solution) was 4.22 log10, the “Number … (neutralization effect)” value (Yersinia enterocolitica [7]; sodium thiosulfate 56 mM after 4.00 mM cisplatin solution, 30 minutes, same as without cisplatin) was 5.1 log10 and the “killing effect (inactivation effect of SV-40) after neutralization” value (SV-40) was “no killing effect”. The “TCID50 after inactivator and neutralizing agent” value (SV-40; 30 minutes, positive control 6.00 log10) was 6.00 log10.
